From patent US7465581B2, “ANKTM1, a cold-activated TRP-like channel expressed in nociceptive neurons” (The Scripps Research Institute, priority 2002, dated 2008)
“Also recorded” adds a separate entry of the source.

Tests used:
TRPM8 [1] = target: T1, TRPM8 (Mus musculus, UniProt Q8R4D5); assay: Intracellular calcium imaging (Fura-2) of TRPM8-expressing CHO cells; type: cell-based, murine
T1 construct: expressed in transfected cells; host or cells: CHO-K1/FRT cells
Experimental: CHO-K1/FRT cells were stably transfected with full-length murine ANKTM1 in the pcDNA5/FRT vector using Lipofectamine (Invitrogen) according to the manufacturer's protocol. Transfected cells were selected in growth medium containing Hygromycin (200 μg/mL). Northern blot analysis identified stable clones expressing ANKTM1 mRNA. The generation of stable murine TRPM8-expressing CHO-K1/FRT cells has been previously described (Peier et al, 2002). ANKTM1-expressing stable CHO-K1/FRT lines appeared unhealthy (membrane blebbing, cytoplasmic granulations) in culture, and after several passages, a loss of ANTKM1 expression was observed. Previous investigators have also claimed difficulty generating stable cell lines expressing human ANKTM1.
Calcium imaging experiments were performed essentially as described (Peier et al., 2002a, supra). Briefly, cells were plated on glass coverslips 24-48 hours prior to imaging experiments. […]
Images of Fura-2 loaded cells with the excitation wavelength alternating between 340 nm and 380 nm were captured with a cooled […] camera. The ratio of fluorescence intensity of the two wavelengths of groups of 30-50 cells in each experiment was analyzed using MetaFluor (Universal Imaging Corp). […] For ANKTM1 and TRPM8 threshold experiments, the threshold temperature of activation of 60-100 cells each from three replicate experiments was analyzed. […]

TRPV1 [2] = target: T2, TRPV1 (Rattus norvegicus, UniProt O35433); assay: Intracellular calcium imaging (Fura-2) of TRPV1-expressing CHO cells; type: cell-based; details: rise in intracellular calcium, 340/380 ratio, FIG. 4B
T2 construct: expressed in transfected cells; host or cells: CHO cells
Experimental: Calcium imaging experiments were performed essentially as described (Peier et al., 2002a, supra). Briefly, cells were plated on glass coverslips 24-48 hours prior to imaging experiments. Cells were washed in HEPES buffeted saline solution (2 mM Ca^2+), loaded with Fura-2 acetoxymethyl ester ([…]), 1.5 mM pluronic acid (Molecular Probes, Eugene, Oreg.) and incubated for 1 hour at room temperature in the dark. Coverslips were placed in laminar flow chamber (Warner Instrument Corp., Hamden, Conn.) and perfused with HEPES buffered saline (2 mM Ca^2+) flowing through small-diameter tubing at the inlet of the chamber. Perfusion rate was approximately 2 ml/min and was stopped and started via a solenoid switch (Warner Instrument Corp., Hamden, Conn. Perfusate temperature was controlled by a Peltier device and monitored via miniature thermocouple at the inlet of the chamber. Heated (up to 52° C.), chilled (down to 9° C., the limit of our system), and room temperature buffer was delivered through the same application tubing at the inlet of the chamber. Alternatively, in experiments where the compounds menthol (Sigma, St. Louis, Mo.]), capsaicin (Fluka, Buchs, Switzerland) and Icilin (Tocris Woodson,) were applied, cells were plated on 24-well tissue culture plates and loaded with Fura-2. Compounds were delivered with a 3 cc syringe during a period of ten seconds. […]

ANKTM1 = target: T3, ANKTM1 (Mus musculus, UniProt Q8BLA8); assay: Intracellular calcium imaging (Fura-2) of ANKTM1-expressing CHO cells; type: cell-based, murine; details: for activation of ANKTM1-expressing cells by compound: rise in intracellular calcium, 340/380 ratio, FIG. 4B
T3 construct: pcDNA5FRT/TO containing full-length murine ANKTM1; expressed in transfected cells; host or cells: tetracycline-inducible CHO-K1/FRT cells (Flp-In)
Experimental: Nevertheless, since ANKTM1 bears similarities to TRP-like channels expressed in sensory neurons, tests were conducted to determine activation of ANKTM1 by various sensory stimuli. To this end, a series of tests were conducted using full-length murine ANKTM1 stably transfected in Chinese Hamster Ovary (CHO) cells containing FRT sites (CHO-K1/FRT) under control of a tetracycline (Tet)-inducible promoter via Flp recombinase mediated recombination. To circumvent this problem, cell lines were generated in which ANKTM1 expression could be controlled. Tetracycline-inducible CHO-K1/FRT cells lines were generated by transfecting the CHO Flp-In host cell line with pcDNA6/TR according to manufacturer's instructions (Invitrogen, San Diego, Calif.) and selected in 5 μg/mL Blasticidin. Clones stably expressing the tetracycline repressor identified by blasticidin resistance were transiently transfected with a control plasmid containing the CAT gene and selected based on high levels of CAT expression after treatment with tetracycline. The gene expression vector; pcDNA5FRT/TO containing full-length murine ANKTM1 and the Flp recombinase expression plasmid pOG44 were co-transfected into the tetracycline-inducible CHO-K1/FRT cell line and selected via Hygromycin resistance (200 μg/ml). Induction of ANKTM1 was accomplished by treating CHO cells with 1-2 μg/mL tetracycline (Tet) 5-24 hours before experiments. Calcium imaging experiments were performed essentially as described (Peier et al., 2002a, supra). Briefly, cells were plated on glass coverslips 24-48 hours prior to imaging experiments. Cells were washed in HEPES buffeted saline solution (2 mM Ca^2+), loaded with Fura-2 acetoxymethyl ester ([…]), 1.5 mM pluronic acid (Molecular Probes, Eugene, Oreg.) and incubated for 1 hour at room temperature in the dark. Coverslips were placed in laminar flow chamber (Warner Instrument Corp., Hamden, Conn.) and perfused with HEPES buffered saline (2 mM Ca^2+) flowing through small-diameter tubing at the inlet of the chamber. Perfusion rate was approximately 2 ml/min and was stopped and started via a solenoid switch (Warner Instrument Corp., Hamden, Conn. Perfusate temperature was controlled by a Peltier device and monitored via miniature thermocouple at the inlet of the chamber. Heated (up to 52° C.), chilled (down to 9° C., the limit of our system), and room temperature buffer was delivered through the same application tubing at the inlet of the chamber. Alternatively, in experiments where the compounds menthol (Sigma, St. Louis, Mo.]), capsaicin (Fluka, Buchs, Switzerland) and Icilin (Tocris Woodson,) were applied, cells were plated on 24-well tissue culture plates and loaded with Fura-2. Compounds were delivered with a 3 cc syringe during a period of ten seconds. Images of Fura-2 loaded cells with the excitation wavelength alternating between 340 nm and 380 nm were captured with a cooled […] camera. The ratio of fluorescence intensity of the two wavelengths of groups of 30-50 cells in each experiment was analyzed using MetaFluor (Universal Imaging Corp). Experiments were performed in triplicate. Unless otherwise indicated, graphs represent averaged responses of 20-40 cells from representative experiments. For direct comparison of results from different experiments, values were normalized to baseline of the ratio 340/380. For ANKTM1 and TRPM8 threshold experiments, the threshold temperature of activation of 60-100 cells each from three replicate experiments was analyzed. Threshold of activation was defined as 20% above baseline. Hanks Balanced Salt Solution (HBSS) and HEPES buffers were obtained from GibcoBRL.

TRPM8 [3] = target: T1, TRPM8; details: McKemy et al., 2002; cited from earlier work
TRPV1 [4] = target: T2, TRPV1; details: general statement; cited from earlier work

T3 sequence (Q8BLA8 whole entry): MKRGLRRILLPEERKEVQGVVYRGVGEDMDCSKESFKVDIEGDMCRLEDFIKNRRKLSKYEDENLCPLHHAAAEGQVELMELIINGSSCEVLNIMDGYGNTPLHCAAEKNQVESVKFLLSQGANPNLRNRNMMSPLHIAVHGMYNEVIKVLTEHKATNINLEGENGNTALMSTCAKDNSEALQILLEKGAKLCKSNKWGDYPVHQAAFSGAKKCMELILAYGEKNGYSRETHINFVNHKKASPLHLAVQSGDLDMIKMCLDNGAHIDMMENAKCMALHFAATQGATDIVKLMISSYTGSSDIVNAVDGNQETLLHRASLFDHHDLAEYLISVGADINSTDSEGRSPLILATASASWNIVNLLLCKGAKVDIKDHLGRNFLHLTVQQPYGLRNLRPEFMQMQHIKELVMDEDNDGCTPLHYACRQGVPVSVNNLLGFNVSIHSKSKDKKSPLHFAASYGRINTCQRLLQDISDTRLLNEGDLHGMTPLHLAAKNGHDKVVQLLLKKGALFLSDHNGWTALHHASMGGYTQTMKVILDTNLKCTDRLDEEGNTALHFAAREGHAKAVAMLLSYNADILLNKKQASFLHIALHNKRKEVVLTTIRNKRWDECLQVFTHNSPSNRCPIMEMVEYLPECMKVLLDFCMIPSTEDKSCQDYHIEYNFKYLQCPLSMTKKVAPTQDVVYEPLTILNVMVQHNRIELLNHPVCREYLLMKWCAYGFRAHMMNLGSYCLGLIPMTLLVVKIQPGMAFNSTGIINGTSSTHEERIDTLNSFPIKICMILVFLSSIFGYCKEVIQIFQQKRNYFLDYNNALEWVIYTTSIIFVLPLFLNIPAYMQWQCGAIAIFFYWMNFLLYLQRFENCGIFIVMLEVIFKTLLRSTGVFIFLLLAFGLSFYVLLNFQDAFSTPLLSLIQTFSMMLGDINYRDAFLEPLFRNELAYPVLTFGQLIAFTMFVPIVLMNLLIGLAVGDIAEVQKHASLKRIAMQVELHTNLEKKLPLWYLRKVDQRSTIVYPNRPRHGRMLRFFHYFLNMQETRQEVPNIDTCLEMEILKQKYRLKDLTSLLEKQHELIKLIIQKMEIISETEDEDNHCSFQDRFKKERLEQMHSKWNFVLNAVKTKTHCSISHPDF
T1 sequence (Q8R4D5 whole entry): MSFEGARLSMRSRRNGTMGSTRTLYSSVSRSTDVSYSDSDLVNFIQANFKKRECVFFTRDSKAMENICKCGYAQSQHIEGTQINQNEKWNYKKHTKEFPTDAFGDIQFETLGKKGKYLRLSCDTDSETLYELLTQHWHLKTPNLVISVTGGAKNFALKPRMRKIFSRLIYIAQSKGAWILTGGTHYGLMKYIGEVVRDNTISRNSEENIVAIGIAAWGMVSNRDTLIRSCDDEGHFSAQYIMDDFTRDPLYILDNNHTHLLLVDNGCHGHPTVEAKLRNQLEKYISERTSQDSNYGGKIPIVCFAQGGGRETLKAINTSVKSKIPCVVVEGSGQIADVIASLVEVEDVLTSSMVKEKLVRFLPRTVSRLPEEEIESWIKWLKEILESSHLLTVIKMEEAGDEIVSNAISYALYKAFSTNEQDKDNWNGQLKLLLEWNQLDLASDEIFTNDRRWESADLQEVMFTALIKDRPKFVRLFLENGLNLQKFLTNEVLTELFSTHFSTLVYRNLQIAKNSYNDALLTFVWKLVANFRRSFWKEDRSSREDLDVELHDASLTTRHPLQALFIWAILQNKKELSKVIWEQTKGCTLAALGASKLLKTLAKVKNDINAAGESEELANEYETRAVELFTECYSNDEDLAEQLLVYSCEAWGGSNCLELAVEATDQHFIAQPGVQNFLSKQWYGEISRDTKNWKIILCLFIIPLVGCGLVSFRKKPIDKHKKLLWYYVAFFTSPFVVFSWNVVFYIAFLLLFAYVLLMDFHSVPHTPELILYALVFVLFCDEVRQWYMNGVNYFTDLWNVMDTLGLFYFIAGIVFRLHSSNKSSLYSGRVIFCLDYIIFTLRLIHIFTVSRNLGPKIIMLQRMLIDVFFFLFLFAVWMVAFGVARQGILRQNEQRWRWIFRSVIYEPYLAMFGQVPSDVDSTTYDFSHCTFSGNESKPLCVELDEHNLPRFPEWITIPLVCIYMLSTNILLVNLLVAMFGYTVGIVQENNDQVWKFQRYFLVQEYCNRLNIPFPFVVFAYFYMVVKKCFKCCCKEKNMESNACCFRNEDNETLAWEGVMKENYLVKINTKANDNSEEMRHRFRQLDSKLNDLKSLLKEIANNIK
T2 sequence (O35433 whole entry): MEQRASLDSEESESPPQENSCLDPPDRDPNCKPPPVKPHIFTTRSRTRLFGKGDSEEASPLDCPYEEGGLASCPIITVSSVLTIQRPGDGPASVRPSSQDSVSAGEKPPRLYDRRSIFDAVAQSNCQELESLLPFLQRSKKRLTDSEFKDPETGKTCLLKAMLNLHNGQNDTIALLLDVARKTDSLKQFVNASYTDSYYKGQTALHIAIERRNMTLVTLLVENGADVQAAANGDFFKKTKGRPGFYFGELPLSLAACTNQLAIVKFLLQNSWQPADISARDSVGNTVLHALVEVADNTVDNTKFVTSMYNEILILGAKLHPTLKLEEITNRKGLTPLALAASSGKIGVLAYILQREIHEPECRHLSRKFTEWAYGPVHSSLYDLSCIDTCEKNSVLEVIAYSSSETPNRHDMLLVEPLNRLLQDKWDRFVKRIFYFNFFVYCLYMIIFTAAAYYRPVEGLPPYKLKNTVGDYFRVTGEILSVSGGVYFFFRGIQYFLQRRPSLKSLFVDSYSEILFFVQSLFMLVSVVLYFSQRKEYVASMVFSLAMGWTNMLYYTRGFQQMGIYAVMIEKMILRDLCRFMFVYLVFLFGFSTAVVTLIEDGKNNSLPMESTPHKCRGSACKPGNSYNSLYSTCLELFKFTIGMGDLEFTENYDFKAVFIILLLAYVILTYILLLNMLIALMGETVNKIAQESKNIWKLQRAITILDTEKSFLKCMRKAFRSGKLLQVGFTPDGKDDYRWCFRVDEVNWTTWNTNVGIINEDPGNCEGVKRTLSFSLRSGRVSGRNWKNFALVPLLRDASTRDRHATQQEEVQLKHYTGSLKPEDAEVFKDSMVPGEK

For `O=C1NC(c2cccc([N+](=O)[O-])c2)=CCN1c1ccccc1O` [Icilin], the delay of response (TRPM8 [1]; TRPM8 cells) was 15 s, the “activation of TRPV1-expressing cells by compound” value (TRPV1 [2]) was “did not activate” and the delay of response (ANKTM1; ANKTM1 cells) was 15 to 60 s. For the same compound, the “concentration required for ANKTM1 activation compared to TRPM8” value (ANKTM1; comparison with TRPM8-expressing cells) was “Higher concentrations”, the “activation of ANKTM1-expressing cells by compound” value (ANKTM1) was “activated” and the “activator of TRPM8” value (TRPM8 [3]) was “potent activator”.

For `CC1CCC(C(C)C)C(O)C1` (stereo not drawn) [Menthol, menthol], the “activation of ANKTM1-expressing cells by compound” value (ANKTM1) was “failed to activate”.

In the case of `COc1cc(CNC(=O)CCCC/C=C/C(C)C)ccc1O` [capsaicin], the “activation of TRPM8-expressing cells by compound” value (TRPM8 [1]; rise in intracellular calcium, 340/380 ratio, FIG. 4B) is listed as “did not activate”, the “activation of ANKTM1-expressing cells by compound” value (ANKTM1) is listed as “did not activate” and the “activator of TRPV1” value (TRPV1 [4]) is listed as “potent activator”.

In the case of `N.N.N.N.N.N.N.N.N.N.N.N.N.N.[Cl-].[Cl-].[Cl-].[Cl-].[Cl-].[Cl-].[O-2].[O-2].[Ru+3].[Ru+3].[Ru+4]` [ruthenium red], the “block of cold responses by ANKTM1” value (ANKTM1; 5 μM ruthenium red, pre-incubation or present during cooling, ANKTM1-expressing CHO cells, not entirely recovered after ten minute washout) is reported as “eliminates cold-evoked responses; also recorded: completely blocked” and the “ANKTM1-containing cells with complete block of the cold response” value (ANKTM1; 1 μm ruthenium red, multiple experiments) is reported as 90%.
